Data on two molecules can be found in patent US20110262556A1, “SILVER/WATER, SILVER GELS AND SILVER-BASED COMPOSITIONS; AND METHODS FOR MAKING AND USING THE SAME” (AMERICAN SILVER, LLC, priority 2005, published 2011).

Structures are written as SMILES. “And” between values parts separate entries of the source, which are not always exact repeats. Identical values can stand only once.

Test [1] addresses Moloney murine leukemia virus reverse transcriptase (MoMuLV) (Moloney murine leukemia virus, UniProt P03355). Nature of the test: Reverse transcriptase inhibition. The format is biochemical. The following applies: 37° C., 24 hours; AZT control at 0.625 microgram/ml. On the procedure:
A commercial viral enzyme preparation of Moloney murine leukemia virus reverse transcriptase (MoMuLV) having Poly(A)dT (primer for RT) was used. […] of the MoMuLV preparation was combined with a mixture of dATP, dGTP, dCTP and [^3H]dTTP nucleotides.
This mixture was combined with 3 ml of the inhibitor to be tested, and the resultant mixture was incubated at 37° C. for 24 hours.
A negative control experiment was performed in which phosphate buffer saline (PBS, 3 ml) was used instead of the inhibitor.
A positive control experiment was performed in which a known reverse transcriptase inhibitor (3 ml of AZT at a concentration 0.625 microgram/ml) was used instead of the tested inhibitor.
The reaction was stopped by adding 25 ml EDTA and 25 ml TCA. The reaction mixture was then spotted on ionic paper (DEAE paper). The paper was washed three times with TCA and then with ethyl alcohol. The filter paper was air dried and put in a scintillation vial with a scintillation cocktail. Radioactivity was measured by a liquid scintillation counter (Blue Star).

The target in test [2] is T1, Hepatitis B virus DNA polymerase (Hepatitis B virus genotype D subtype ayw, UniProt P03156).
T1 construct: from tissue; host or cells: Hepatitis B virus isolated from human subjects, lysed
T1 sequence (P03156 whole entry): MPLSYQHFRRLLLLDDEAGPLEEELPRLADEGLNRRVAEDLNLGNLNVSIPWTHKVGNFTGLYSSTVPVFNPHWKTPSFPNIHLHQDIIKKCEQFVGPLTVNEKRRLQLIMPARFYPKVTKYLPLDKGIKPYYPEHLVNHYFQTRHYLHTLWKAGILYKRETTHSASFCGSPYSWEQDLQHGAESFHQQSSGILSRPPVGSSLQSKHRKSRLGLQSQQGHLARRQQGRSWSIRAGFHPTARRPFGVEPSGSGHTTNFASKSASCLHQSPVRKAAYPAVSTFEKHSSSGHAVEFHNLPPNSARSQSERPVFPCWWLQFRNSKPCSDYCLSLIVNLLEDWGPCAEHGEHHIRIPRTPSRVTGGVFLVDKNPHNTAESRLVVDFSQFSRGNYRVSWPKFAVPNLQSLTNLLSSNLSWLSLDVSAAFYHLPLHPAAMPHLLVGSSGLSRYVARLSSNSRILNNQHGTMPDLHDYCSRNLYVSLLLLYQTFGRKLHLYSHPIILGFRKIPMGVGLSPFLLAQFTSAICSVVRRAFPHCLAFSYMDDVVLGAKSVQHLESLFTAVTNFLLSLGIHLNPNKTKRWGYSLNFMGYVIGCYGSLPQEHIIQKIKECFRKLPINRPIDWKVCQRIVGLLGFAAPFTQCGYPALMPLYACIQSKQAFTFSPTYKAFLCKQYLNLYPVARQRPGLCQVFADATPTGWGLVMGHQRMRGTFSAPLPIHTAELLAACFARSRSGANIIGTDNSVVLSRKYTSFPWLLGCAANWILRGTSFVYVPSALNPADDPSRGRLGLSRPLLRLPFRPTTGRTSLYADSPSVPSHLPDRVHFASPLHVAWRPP
Nature of the test: DNA polymerase inhibition. Format: biochemical. The following applies: read-out: % Inhibition (DNA polymerase). As for the experimental part: Overall approach. Hepatitis B viral extracts from human subjects are incubated with radiolabelled nucleotides and an active inhibitor. Percent inhibition is calculated based on the amount of de novo viral nucleic acid synthesized with respect to lamivudine as a positive control and phosphate buffer saline (PBS) as a negative control.
Specific procedure. Isolated Hepatitis B virus was lysed to extract free polymerase enzyme, which is free from contaminating enzymes. A virus extract (25 ml) was added to a reaction mixture comprising dATP, dGTP, dCTP and [^3H]dTTP nucleotides (25 ml). Active inhibitor (3 ml) was added to the mixture comprising virus extract and nucleotides. The resultant mixture was incubated at 37° C. for 24 hours.
A separate negative control experiment was performed in which phosphate buffer saline (PBS, 3 ml) was used instead of the inhibitor (3 ml).
A separate positive control experiment was performed in which a known DNA polymerase inhibitor (3 ml of lamivudine at a concentration 3 mg/ml) was used instead of the tested inhibitor (3 ml).
The reaction was stopped by adding 25 ml EDTA and 25 ml TCA (trichloroacetic acid). The reaction mixture was then spotted on ionic paper (DEAE paper). The paper was washed three times with TCA and then with ethyl alcohol. […] Radioactivity was measured by a liquid scintillation counter (Blue Star). […]

For the molecule `Cc1cn([C@H]2C[C@H](N=[N+]=[N-])[C@@H](CO)O2)c(=O)[nH]c1=O` [AZT, zidovudine], the “% Inhibition (reverse transcriptase)” value in test [1] is 31.33% and 18.06%.

With `Nc1ccn([C@@H]2CS[C@H](CO)O2)c(=O)n1` [lamivudine], in test [2], the inhibition at 3000 µg/mL came to 31.3%.

For orientation: inhibition means how much of the control response was suppressed.
